Molecular target: BCL-2 recombinant protein (Homo sapiens, UniProt P10415)
Assay: Cell free Bcl-2:Bak affinity assay (Bcl-2 Bak), HTRF competition of FAM-Bak peptide
Format: binding
Conditions: 4 nM BCL-2 recombinant protein, 100 nM FAM-Bak; for IC50: 10-concentration IC50 mode, read-out: potency (IC50); for inhibition at 1 µM: 1 μM compound, read-out: potency (% inhibition at 1 μM)
Method in brief: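 Compounds in 10-point 3-fold dilution preincubated 10 min at RT with 4 nM GST-BCL-2 (20 mM K phosphate pH 7.5, 50 mM NaCl, 1 mM EDTA, 0.005% Triton X-100), then 100 nM FAM-Bak 10 min, anti-GST-Tb added, 60 min RT dark. HTRF read; % inhibition vs DMSO and positive control, IC50 from curve fit.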

Sequence of BCL-2 recombinant protein (P10415 whole entry): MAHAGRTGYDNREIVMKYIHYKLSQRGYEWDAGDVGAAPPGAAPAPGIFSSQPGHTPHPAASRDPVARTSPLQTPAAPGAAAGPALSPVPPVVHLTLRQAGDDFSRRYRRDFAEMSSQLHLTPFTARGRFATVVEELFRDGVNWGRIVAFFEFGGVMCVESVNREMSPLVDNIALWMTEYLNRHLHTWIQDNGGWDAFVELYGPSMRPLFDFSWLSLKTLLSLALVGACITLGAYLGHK

Compound | IC50 | inhibition at 1 µM
COCc1ccc(C(=O)NS(=O)(=O)c2ccc(N3CCN(CC4=C(c5ccc(Cl)cc5)CC(C)(C)CC4)CC3)cc2Oc2cnc3[nH]ccc3c2)cc1[N+](=O)[O-] [Example 87, N-[4-[4-[[2-(4-chlorophenyl)-4,4-dimethylcyclohexen-1-yl]methyl]piperazin-1-yl]-2-(1H-pyrrolo[2,3-b]pyridin-5-yloxy)phenyl]sulfonyl-4-(methoxymethyl)-3-nitrobenzamide] | 10 to 100 nM | 
Cn1ncc2ccc(-c3nc(C(=O)NS(=O)(=O)c4ccc(N5CCN(CC6=C(c7ccc(Cl)cc7)CC(C)(C)CC6)CC5)cc4)ccc3F)cc21 [Example 60, N-[4-[4-[[2-(4-Chlorophenyl)-4,4-dimethylcyclohexen-1-yl]methyl]piperazin-1-yl]phenyl]sulfonyl-5-fluoro-6-(1-methyl-1H-indazol-6-yl)pyridine-2-carboxamide] |  | 50 to 90%
Cc1c(Cl)c(C(=O)NS(=O)(=O)c2ccc(N3CCN(CC4=C(c5ccc(Cl)cc5)CC(C)(C)CC4)CC3)cc2Oc2cnc3[nH]ccc3c2)cc([N+](=O)[O-])c1OCc1ccc(Cl)cc1 [Example 88, 2-Chloro-N-[4-[4-[[2-(4-chlorophenyl)-4,4-dimethylcyclohexen-1-yl]methyl]piperazin-1-yl]-2-(1H-pyrrolo[2,3-b]pyridin-5-yloxy)phenyl]sulfonyl-4-[(4-chlorophenyl)methoxy]-3-methyl-5-nitrobenzamide] | < 10 nM | 
Cn1ncc2cc(-c3nc(C(=O)NS(=O)(=O)c4ccc(N5CCN(CC6=C(c7ccc(Cl)cc7)CC(C)(C)CC6)CC5)cc4)ccc3F)ccc21 [Example 50, N-[4-[4-[[2-(4-chlorophenyl)-4,4-dimethylcyclohexen-1-yl]methyl]piperazin-1-yl]phenyl]sulfonyl-5-fluoro-6-(1-methyl-1H-indazol-5-yl)pyridine-2-carboxamide] |  | 50 to 90%

Results, then the molecule that gave them:

IC50 | inhibition at 1 µM | Compound
 | 50 to 90% | COCc1ccc(C(=O)NS(=O)(=O)c2ccc(N3CCN(CC4=C(c5ccc(Cl)cc5)CC(C)(C)CC4)CC3)cc2)cc1 [Example 19, N-([4-[4-[[2-(4-chlorophenyl)-4,4-dimethylcyclohexen-1-yl]methyl]piperazin-1-yl]phenyl]sulfonyl)-4-(methoxymethyl)benzamide]
 | 50 to 90% | CC1(C)CCC(CN2CCN(c3ccc(S(=O)(=O)NC(=O)c4ccc(Br)cn4)cc3)CC2)=C(c2ccc(Cl)cc2)C1 [Example 13, 5-bromo-N-([4-[4-[[2-(4-chlorophenyl)-4,4-dimethylcyclohexen-1-yl]methyl]piperazin-1-yl]phenyl]sulfonyl)pyridine-2-carboxamide]

From patent publication US11622970B2, “BCL-2 inhibitors and their use as pharmaceuticals” (PRELUDE THERAPEUTICS INCORPORATED, priority 2020, dated 2023)
